What was measured:
Type in all cases: in vivo
[1] = system: Pseudoperonospora cubensis; assay: Test A: cucumber downy mildew, spray the day before inoculation (disease rating, 100 = 100% disease control)
How it was run: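 Cucumber seedlings were sprayed to run-off with compound suspended in acetone/water containing 250 ppm Trem 014 (200 ppm equated to 500 g/ha), then inoculated with P. cubensis spores the next day. Plants were kept 24 h at 20 °C in saturated humidity, then 6 days at 20 °C, before disease rating relative to controls.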

[2] = system: Plasmopara viticola; assay: Test B: grape downy mildew, spray 24 h after inoculation (disease rating, 100 = 100% disease control)
How it was run: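 Grape seedlings were inoculated with Plasmopara viticola and held 24 h saturated at 20 °C, then sprayed to run-off with compound suspension (acetone/water with 250 ppm Trem 014; 200 ppm ≈ 500 g/ha). After 5 days at 20 °C and 24 h saturation, disease was rated from 0 to 100% control versus untreated.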

[3] = system: Phytophthora infestans; assay: whole plant or invertebrate; details: tomato late blight
[4] = system: Erysiphe graminis f. sp. tritici; assay: Test E: wheat powdery mildew, spray the day before inoculation (disease rating, 100 = 100% disease control)
How it was run: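 Wheat seedlings sprayed to run-off with compound suspended in acetone/water 50/50 with 250 ppm Trem 014 (200 ppm equivalent to 500 g/ha); inoculated next day with Erysiphe graminis f. sp. tritici spore dust. Kept 7 days at 20° C, then rated 0–100% disease control versus controls.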

[5] = system: Pseudoperonospora cubensis; assay: Test F: cucumber downy mildew, DMSO/acetone/water test suspension, spray the day before inoculation (disease rating, 100 = 100% disease control)
How it was run: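 Compounds in DMSO (4% of final volume) suspended in 30/70 acetone/water and sprayed on cucumber seedlings; 250 ppm corresponds to 250 g/ha. Spore inoculation the next day, 24 h saturated humidity at 20° C., then 6 days at 20° C. Rating 0–100 is disease control relative to controls.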

[6] = sprayed the day before inoculation, unmarked compounds (no asterisk, not 40 or 10 ppm)
[7] = sprayed 24 h after inoculation, unmarked compounds (no asterisk, not 40 or 10 ppm)
[8] = sprayed the day before inoculation, 7 days at 20° C., unmarked compounds (no asterisk, not 40 or 10 ppm)
[9] = DMSO/acetone/water test suspension, sprayed the day before inoculation, unmarked compounds (no asterisk)
[10] = spray the day before inoculation, compounds without asterisk (not 40 or 10 ppm)
[11] = spray 24 h after inoculation, compounds without asterisk (not 40 or 10 ppm)
[12] = DMSO/acetone/water suspension, spray the day before inoculation, compounds without asterisk

Compound | Test A disease rating (100 = 100% disease control, 0 = no disease control) [1, 6] | Test B disease rating (100 = 100% disease control, 0 = no disease control) [2, 7] | Test C disease rating (100 = 100% disease control, 0 = no disease control) [3, 6] | Test E disease rating (100 = 100% disease control, 0 = no disease control) [4, 8] | Test F disease rating (100 = 100% disease control, 0 = no disease control) [5, 9] | Test A disease rating (100 = 100% disease control, 0 = no disease control) [1, 10] | Test B disease rating (100 = 100% disease control, 0 = no disease control) [2, 11] | Test C disease rating (100 = 100% disease control, 0 = no disease control) [3, 10] | Test E disease rating (100 = 100% disease control, 0 = no disease control) [4, 10] | Test F disease rating (100 = 100% disease control, 0 = no disease control) [5, 12]
CC(C)(NC(=O)c1csc(C2CCN(C(=O)Cc3ccccc3Cl)CC2)n1)c1ccccc1 [compound 263] | 92 | 0 | 15 | 0 | 0 | – | – | – | – | –
O=C(NCCc1ccccc1)c1csc(C2CCN(C(=O)Cc3ccccc3Cl)CC2)n1 [compound 264] | 96 | 20 | 0 | 68 | 93 | – | – | – | – | –
O=C(NC1CCCc2ccccc21)c1csc(C2CCN(C(=O)Cc3ccccc3Cl)CC2)n1 (stereo not drawn) [compound 266] | 100 | 6 | 57 | 42 | 86 | – | – | – | – | –
N#CC(NC(=O)c1csc(C2CCN(C(=O)Cc3cccc(Br)c3)CC2)n1)c1ccccc1 (stereo not drawn) [compound 282] | 55 | 8 | 0 | 0 | 39 | – | – | – | – | –
N-(2,3-dihydro-2,2-dimethyl-1H-inden-1-yl)-N-methyl-2-[1-[[5-methyl-3-(trifluoromethyl)-1H-pyrazol-1-yl]acetyl]-4-piperidinyl]-4-thiazolecarboxamide [Compound 222] | – | – | – | – | – | 100% | 99% | 99% | 21% | 100%
N-(2,3-dihydro-2-methyl-1H-inden-1-yl)-N-methyl-2-[1-[[5-methyl-3-(trifluoromethyl)-1H-pyrazol-1-yl]acetyl]-4-piperidinyl]-4-thiazolecarboxamide [Compound 226] | – | – | – | – | – | 100% | 0% | 93% | 0% | 99%
N-methyl-1-[1-[[5-methyl-3-(trifluoromethyl)-1H-pyrazol-1-yl]acetyl]-4-piperidinyl]-N-[(1R)-1,2,3,4-tetrahydro-1-naphthalenyl]-1H-pyrazole-3-carboxamide [Compound 231] | – | – | – | – | – | 100% | 80% | 100% | 0% | 96%
N-methyl-2-[1-[[5-methyl-3-(trifluoromethyl)-1H-pyrazol-1-yl]acetyl]-4-piperidinyl]-N-(1,2,3,4-tetrahydro-4-oxo-1-naphthalenyl)-4-thiazolecarboxamide [Compound 211] | – | – | – | – | – | 100% | 8% | 99% | 0% | 92%
N-methyl-2-[1-[[5-methyl-3-(trifluoromethyl)-1H-pyrazol-1-yl]acetyl]-4-piperidinyl]-N-[(1R)-1,2,3,4-tetrahydro-1-naphthalenyl]-2H-1,2,3-triazole-4-carboxamide [Compound 232] | – | – | – | – | – | 87% | 0% | 95% | 0% | 93%
N-methyl-2-[1-[[5-methyl-3-(trifluoromethyl)-1H-pyrazol-1-yl]acetyl]-4-piperidinyl]-N-[(1R)-1,2,3,4-tetrahydro-1-naphthalenyl]-4-oxazolecarboxamide [Compound 151] | – | – | – | – | – | 99% | 31% | 29% | 0% | 93%
N-methyl-2-[1-[[5-methyl-3-(trifluoromethyl)-1H-pyrazol-1-yl]acetyl]-4-piperidinyl]-N-[(1R)-1,2,3,4-tetrahydro-1-naphthalenyl]-4-thiazolecarbothioamide [Compound 289] | – | – | – | – | – | 100% | 33% | 98% | 0% | 47%
N-methyl-2-[1-[[5-methyl-3-(trifluoromethyl)-1H-pyrazol-1-yl]acetyl]-4-piperidinyl]-N-[(1R)-1-phenylpropyl]-4-thiazolecarboxamide [Compound 117] | – | – | – | – | – | 100% | 67% | 96% | 50% | 86%

From US8586611B2 (priority 2005, dated 2013)
